Here are results for 20 compounds from patent US20230114241A1, “METHODS OF TREATING EPILEPSY USING THE SAME” (Trevena, Inc., priority 2019, published 2023).

Molecules are shown by their SMILES.

For experiment [1], the target named is T1, human sphingosine-1-phosphate receptor 1 (S1P1) (Homo sapiens, UniProt P21453). Kind of experiment: Inhibition of cAMP production (HTRF cAMP HiRange), S1P1 CHO-K1 cells. The settings on record: for Emax: CHO-K1, efficacy normalized to maximum efficacy of fingolimod, read-out: hS1P1 CAMP SPAN; for EC50: read-out: hS1P1 CAMP pEC50 (converted). The experiment is classed as cell-based. In a few lines:
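CHO-K1 cells co-expressing human S1P1 (C-terminal ProLink tag) and EA-β-arrestin2, plated overnight; after 30 min compound incubation at 37 °C, intracellular cAMP measured by HTRF TR-FRET following 1 h at room temperature. Values normalized to fingolimod.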
Target sequence in this assay (P21453 whole entry): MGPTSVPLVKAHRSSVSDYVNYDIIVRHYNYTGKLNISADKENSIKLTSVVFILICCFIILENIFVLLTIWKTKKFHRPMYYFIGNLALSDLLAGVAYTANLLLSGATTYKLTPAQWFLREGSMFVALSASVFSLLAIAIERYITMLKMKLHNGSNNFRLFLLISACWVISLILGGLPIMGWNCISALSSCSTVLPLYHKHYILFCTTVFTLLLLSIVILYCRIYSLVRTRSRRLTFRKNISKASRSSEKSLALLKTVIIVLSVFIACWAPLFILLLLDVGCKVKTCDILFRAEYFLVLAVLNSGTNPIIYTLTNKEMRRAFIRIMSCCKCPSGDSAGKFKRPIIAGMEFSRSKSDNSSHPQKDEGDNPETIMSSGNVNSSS

Experiment [2] has as its target T1, human sphingosine-1-phosphate receptor 1 (S1P1). The experiment can be described thus: β-Arrestin2 recruitment assay (PathHunter), S1P1 CHO-K1 cells. It counts as cell-based. The settings on record: for Emax: efficacy normalized to maximum efficacy of fingolimod, read-out: hS1P1 B-arrestin2 SPAN; for EC50: read-out: hS1P1 B-arrestin2 pEC50 (converted). In a few lines:
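CHO-K1 cells co-expressing EA-β-arrestin2 and ProLink-tagged human S1P1 plated overnight, then stimulated 60 min at 37 °C. Enzyme-fragment complementation (β-galactosidase) detected after 1 h at room temperature by luminescence; values normalized to fingolimod.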
Target sequence in this assay (P21453 whole entry): as above
Target sequence in this assay (P32121 whole entry partner): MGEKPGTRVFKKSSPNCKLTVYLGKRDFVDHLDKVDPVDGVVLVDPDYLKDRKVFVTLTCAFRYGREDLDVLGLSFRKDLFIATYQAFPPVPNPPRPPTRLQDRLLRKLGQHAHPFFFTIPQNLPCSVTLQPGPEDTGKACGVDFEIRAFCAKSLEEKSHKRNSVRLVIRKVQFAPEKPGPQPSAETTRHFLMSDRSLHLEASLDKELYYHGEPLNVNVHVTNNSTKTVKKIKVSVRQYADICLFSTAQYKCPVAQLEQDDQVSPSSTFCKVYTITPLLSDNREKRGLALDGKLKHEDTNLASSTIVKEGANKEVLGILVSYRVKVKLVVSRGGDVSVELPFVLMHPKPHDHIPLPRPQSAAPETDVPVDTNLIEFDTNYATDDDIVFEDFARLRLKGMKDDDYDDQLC
Background: Arrestin recruitment assays detect the binding of arrestin to an activated receptor.

[3] abbreviates: inhibition of cAMP production, potency.
The mark [4] stands for this setting: CHO-K1, β-arrestin2 recruitment.
Setting [5] is: β-arrestin2 recruitment, potency.
Setting [6] is: inhibition of cAMP production, S1P1.

On to `CC(C)Oc1ccc(-c2noc(-c3ccc4c(c3)nnn4C(C)C)n2)cc1C(F)(F)F` [Compound 20, 3-(4-isopropoxy-3-(trifluoromethyl)phenyl)-5-(1-isopropyl-1H-benzo[d][1,2,3]triazol-5-yl)-1,2,4-oxadiazole], for which the Emax in experiment [1] (inhibition of cAMP production) and in experiment [2] (setting [4]) was greater than 75% each time. The EC50 is less than 316 nM in experiment [1] (setting [3]) and less than 10000 nM in experiment [2] (setting [5]).
As for `CCC1(CC)CC(=O)c2cc(-c3nc(-c4cnccc4C(F)(F)F)no3)ccc2O1` [Compound 558, 2,2-diethyl-6-(3-(4-(trifluoromethyl)pyridin-3-yl)-1,2,4-oxadiazol-5-yl)chroman-4-one], the Emax in experiment [1] and in experiment [2] (CHO-K1) was greater than 75% throughout. For the same compound, the EC50 in experiment [1] (setting [6]) was less than 316 nM; in experiment [2] (β-arrestin2 recruitment, S1P1), less than 10000 nM.
For `CCC1(CC)CC(=O)c2cc(-c3nc(-c4ccnc(N)c4)no3)ccc2O1` [Compound 513, 6-(3-(2-aminopyridin-4-yl)-1,2,4-oxadiazol-5-yl)-2,2-diethyl-chroman-4-one], the Emax in experiment [1] and in experiment [2] (CHO-K1) was greater than 75% in each case. Moreover, the EC50 in experiment [1] (setting [6]) was less than 316 nM; in experiment [2] (β-arrestin2 recruitment, S1P1) it was less than 10000 nM.
With `COc1ccccc1-c1nc(-c2ccc3c(ccn3C(C)C)c2)ns1` [Compound 375, 5-[5-(2-methoxy-phenyl)-1,2,4-thiadiazol-3-yl]-1-(propan-2-yl)-1H-indole], the values for the Emax in experiment [1] and in experiment [2] (CHO-K1) were greater than 75% and less than 75%, respectively. The EC50 in experiment [1] (setting [6]) was less than 316 nM; in experiment [2] (β-arrestin2 recruitment, S1P1) it was less than 10000 nM.
In the case of `Cc1ccccc1-c1noc(-c2ccc3c(c2)nnn3C2CCC2)n1` [Compound 306, 1-cyclobutyl-5-[3-(2-methylphenyl)-1,2,4-oxadiazol-5-yl]-1H-1,2,3-benzotriazole], the Emax in experiment [1] (inhibition of cAMP production) was greater than 75%; in experiment [2] (setting [4]), less than 75%. Also, the EC50 in experiment [1] (setting [3]) was less than 316 nM; in experiment [2] (setting [5]), less than 10000 nM.
Take `N#Cc1cc(-c2nnc(-c3ccc4[nH]c(=O)oc4c3)o2)ccc1NCC(F)F` [Compound 488, 2-[(2,2-difluoro-ethyl)amino]-5-[5-(2-oxo-2,3-dihydro-1,3-benzoxazol-6-yl)-1,3,4-oxadiazol-2-yl]benzonitrile]: the Emax in experiment [1] was less than 75%; in experiment [2] (CHO-K1) it was greater than 75%. The EC50 in experiment [1] (setting [6]) is less than 316 nM; in experiment [2] (β-arrestin2 recruitment, S1P1), less than 10000 nM.
The corresponding values for `Cc1nc2cc(-c3nnc(-c4ccc(NC(C)C)c(C#N)c4)o3)ccc2[nH]1` [Compound 560, 5-[5-(2-methy1-1H-1,3-benzodiazol-5-yl)-1,3,4-oxadiazol-2-yl]-2-[(propan-2-yl)amino]benzonitrile] are greater than 75%, greater than 75%, less than 316 nM and less than 10000 nM.
`CC(C)n1nnc2cc(-c3ncc(-c4ccccc4Br)s3)ccc21` [Compound 220, 5-(2-bromophenyl)-2-(1-isopropylbenzo-triazol-5-yl)thiazole]: the Emax in experiment [1] (inhibition of cAMP production) and in experiment [2] (setting [4]) was less than 75% throughout. Besides, the EC50 in experiment [1] (setting [3]) is greater than 316 nM; in experiment [2] (setting [5]) it was greater than 10000 nM.
For the compound `N#Cc1cc(-c2nc(-c3ccc4c(c3)CCC(=O)N4)no2)ccc1NCC(F)(F)F` [Compound 472, 5-[3-(2-oxo-1,2,3,4-tetrahydroquinolin-6-yl)-1,2,4-oxadiazol-5-yl]-2-[(2,2,2-trifluoro-ethyl)amino]benzonitrile], the Emax in experiment [1] and in experiment [2] (CHO-K1) was greater than 75% throughout. Also, the EC50 in experiment [1] (setting [6]) is less than 316 nM; in experiment [2] (β-arrestin2 recruitment, S1P1), less than 10000 nM.
For the compound `CCC1(CC)CC(=O)c2cc(-c3nc(-c4cncc(N)c4)no3)ccc2O1` [Compound 502, 6-(3-(5-aminopyridin-3-yl)-1,2,4-oxadiazol-5-yl)-2,2-diethylchroman-4-one], the Emax in experiment [1] and in experiment [2] (CHO-K1) was greater than 75% throughout. The EC50 in experiment [1] (setting [6]) is less than 316 nM; in experiment [2] (β-arrestin2 recruitment, S1P1) it was less than 10000 nM.
With `COc1ccccc1-c1noc(-c2ccc3[nH]cnc3c2)n1` [Compound 369, 5-(1H-benzo[d]imidazol-5-yl)-3-(2-methoxy-phenyl)-1,2,4-oxadiazole], the Emax in experiment [1] (inhibition of cAMP production) and in experiment [2] (setting [4]) was less than 75% throughout. Further, the EC50 in experiment [1] (setting [3]) was greater than 316 nM; in experiment [2] (setting [5]), greater than 10000 nM.
Consider `CCC1(CC)CC(=O)c2cc(-c3nc(-c4cccc(C)c4)no3)ccc2O1` [Compound 225, 2,2-diethyl-6-(3-(m-tolyl)-1,2,4-oxadiazol-5-yl)chroman-4-one], for which the figures for the Emax in experiment [1] (inhibition of cAMP production) and in experiment [2] (setting [4]) were greater than 75% and less than 75%, respectively. Further, the EC50 in experiment [1] (setting [3]) was greater than 316 nM; in experiment [2] (setting [5]), less than 10000 nM.
For the compound `CCC1(CC)CC(=O)c2cc(-c3noc(-c4ccc(NC(C)C)c(C#N)c4)n3)ccc2O1` [Compound 443, 5-(3-(2,2-diethyl-4-oxochroman-6-y)-1,2,4-oxadiazol-5-yl)-2-(isopropyl-amino)benzonitrile], the values for the Emax in experiment [1] and in experiment [2] (CHO-K1) were greater than 75% and less than 75%, respectively. In addition, the EC50 is less than 316 nM in experiment [1] (setting [6]) and less than 10000 nM in experiment [2] (β-arrestin2 recruitment, S1P1).
The corresponding values for `O=C1c2cc(-c3nc(-c4cccnc4)no3)ccc2OC(CO)(CO)C1Br` (stereo not drawn) [Compound 479, 3-bromo-2,2-bis(hydroxy-methyl)-6-[3-(pyridin-3-yl)-1,2,4-oxadiazol-5-yl]-3,4-dihydro-2H-1-benzopyran-4-one] are less than 75%, less than 75%, greater than 316 nM and greater than 10000 nM.
On to `Cc1cn(C)nc1-c1noc(-c2ccc3c(c2)nnn3CC(C)(C)O)n1` [Compound 518, 1-{5-[3-(1,4-dimethyl-1H-pyrazol-3-yl)-1,2,4-oxadiazol-5-yl]-1H-1,2,3-benzotriazol-1-yl}-2-methylpropan-2-ol], for which the Emax in experiment [1] was greater than 75%; in experiment [2] (CHO-K1), less than 75%. In addition, the EC50 is greater than 316 nM in experiment [1] (setting [6]) and greater than 10000 nM in experiment [2] (β-arrestin2 recruitment, S1P1).
As to `COc1ccc(-c2noc(-c3ccc4c(c3)nnn4CC(C)(C)O)n2)c(C)c1` [Compound 647, 1-{5-[3-(4-methoxy-2-methylphenyl)-1,2,4-oxadiazol-5-yl]-1H-1,2,3-benzotriazol-1-yl}-2-methylpropan-2-ol], the EC50 in experiment [1] (setting [6]) is less than 316 nM. For the same compound, in experiment [2] (β-arrestin2 recruitment, S1P1), the “hS1P1 B-arrestin2 pEC50” value is on record as greater than 5.
For `Cc1ccccc1-c1csc(-c2cnc3c(ccn3C(C)C)c2)n1` [Compound 407, 2-(1-isopropyl-pyrrolo[2,3-b]pyridin-5-yl)-4-(o-tolyl)thiazole], the results for the Emax in experiment [1] and in experiment [2] (CHO-K1) were greater than 75% and less than 75%, respectively. For the same compound, the EC50 was greater than 316 nM in experiment [1] (setting [6]) and greater than 10000 nM in experiment [2] (β-arrestin2 recruitment, S1P1).
`CC(C)n1ccc2cc(-c3nc(-c4cccc5c4OCCC5)no3)ccc21` [Compound 327, 3-chroman-8-yl-5-(1-isopropylindol-5-yl)-1,2,4-oxadiazole]: the results for the Emax in experiment [1] (inhibition of cAMP production) and in experiment [2] (setting [4]) were less than 75% and greater than 75%, respectively. Moreover, the results for the EC50 in experiment [1] (setting [3]) and in experiment [2] (setting [5]) were greater than 316 nM and less than 10000 nM, respectively.
For `O=C1CCOc2ccc(-c3nc(-c4ccncc4)no3)cc21` [Compound 57, 6-[3-(pyridin-4-yl)-1,2,4-oxadiazol-5-yl]-3,4-dihydro-2H-1-benzopyran-4-one] the same measures were less than 75%, less than 75%, greater than 316 nM and greater than 10000 nM.
In the case of `CC(C)n1nnc2cc(-c3noc(C4CCC4)n3)ccc21` [Compound 18, 5-(5-cyclobutyl-1,2,4-oxadiazol-3-yl)-1-(propan-2-yl)-1H-1,2,3-benzotriazole], the Emax in experiment [1] (inhibition of cAMP production) and in experiment [2] (setting [4]) was less than 75% each time. Also, the EC50 is greater than 316 nM in experiment [1] (setting [3]) and greater than 10000 nM in experiment [2] (setting [5]).
